Test results: US20260070928A1, “NOVEL CRYSTALLINE FORMS OF (S)-7-OXA-2-AZA-SPIRO[4.5]DECANE-2-CARBOXYLIC ACID [7-(3,6-DIHYDRO-2H-PYRAN-4-YL)-4-METHOXY-THIAZOLO[4,5-C]PYRIDIN-2-YL]-AMIDE AND CO-CRYSTAL FORMS THEREOF” (Domain Therapeutics S.A., priority 2022, published 2026)

Experiments:
[1] = water vapour sorption isotherm (25° C.), DVS intrinsic system; hygroscopicity according to Ph. Eur. 5.11; format: physicochemical; details: for water uptake levels (water vapour sorption): 25° C.
From the text: The amorphous state can be classified as hygroscopic according to Ph. […] The water vapour sorption isotherm was acquired on a DVS intrinsic system from SMS.
Eur. criteria (section 5.11.).
The water vapour sorption isotherm was acquired on a DVS Intrinsic system from SMS.
(§1) The mono fumaric acid co-crystal form A1 is characterised by the following physical properties: • 1 eq. […] The DSC scan of mono fumaric acid co-crystal form A1 was acquired on a Mettler-Toledo DSC1 with a heating rate of 5 K/min, using nitrogen purge gas at 50 mL/min. […] Eur. criteria (section 5.11.). […] The water vapour sorption isotherm was acquired on a DVS intrinsic system from SMS. • The concentration levels of the mono fumaric acid co-crystal form A1 were determined at 37° C. after 15 min and 30 min in non-sink-dissolution experiments.
as §1, with “The hemi” for “The mono”, “form A2” for “form A1”, “• 0.5” for “• 1”, “of the hemi” for “of mono”, “Eur. Criteria” for “Eur. criteria”, “the hemi” for “the mono”

[2] = non-sink dissolution experiments in biorelevant media at 37° C.; format: physicochemical; details: for Dissolution levels after 15 min / Dissolution levels after 30 min: 37° C., non-sink dissolution; for dissolution behaviour in biorelevant intestinal milieu (FaSSIF) compared to crystalline entities of the free compound: comparison in words
Protocol: as §1
as §1, with “The hemi” for “The mono”, “form A2” for “form A1”, “• 0.5” for “• 1”, “of the hemi” for “of mono”, “Eur. Criteria” for “Eur. criteria”, “the hemi” for “the mono”

[3] = full relative humidity range 0-98% RH

| Structure (SMILES) | hygroscopicity classification according to Ph. Eur. criteria (section 5.11.) ([1]; 25° C. water vapour sorption) | water uptake levels (water vapour sorption) [1, 3] | tendency to undergo hydrate formation upon exposure to elevated RH levels [1] | Dissolution levels after 15 min ([2]; FaSSIF [pH 6.5]) [µg/mL] | Dissolution levels after 30 min ([2]; FaSSIF [pH 6.5]) | dissolution behaviour in biorelevant intestinal milieu (FaSSIF) compared to crystalline entities of the free compound [2] | Dissolution levels after 15 min ([2]; FeSSIF [pH 5.0]) [µg/mL] | Dissolution levels after 30 min ([2]; FeSSIF [pH 5.0]) [µg/mL] | Dissolution levels after 15 min ([2]; SGF [pH 1.2]) [µg/mL] | Dissolution levels after 30 min ([2]; SGF [pH 1.2]) [µg/mL] | other results |
| --- | --- | --- | --- | --- | --- | --- | --- | --- | --- | --- | --- |
| COc1ncc(C2=CCOCC2)c2sc(NC(=O)N3CC[C@@]4(CCCOC4)C3)nc12 [amorphous state, (S)-7-Oxa-2-aza-spiro[4,5]decane-2-carboxylic acid [7-(3,6-dihydro2H-pyran-4-yl)-4-methoxy-thiazolo[4,5-c]pyridin-2-yl]-amide] | hygroscopic | > 22 % (w/w) |  |  |  |  |  |  |  |  | humidity level at which tendencies for deliquescence are shown ([1]; 25° C. water vapour sorption): > 90 % RH |
| COc1ncc(C2=CCOCC2)c2sc(NC(=O)N3CC[C@@]4(CCCOC4)C3)nc12 [crystalline anhydrous form A1, (S)-7-Oxa-2-aza-spiro[4,5]decane-2-carboxylic acid [7-(3,6-dihydro2H-pyran-4-yl)-4-methoxy-thiazolo[4,5-c]pyridin-2-yl]-amide] | Slightly hygroscopic |  | no tendency to undergo hydrate formation |  |  |  |  |  |  |  | hygroscopicity classification according to Ph. Eur. criteria (section 5.11.) ([1]; 25° C. water vapour sorption, listed as A1 form): slightly hygroscopic; water uptake levels (water vapour sorption) ([1]; full relative humidity range 0-98% RH, listed as A1 form): < 1 % (w/w) |
| COc1ncc(C2=CCOCC2)c2sc(NC(=O)N3CC[C@@]4(CCCOC4)C3)nc12 [hemi fumaric acid co-crystal form A2, (S)-7-Oxa-2-aza-spiro[4,5]decane-2-carboxylic acid [7-(3,6-dihydro2H-pyran-4-yl)-4-methoxy-thiazolo[4,5-c]pyridin-2-yl]-amide] | slightly hygroscopic |  |  | 317 | 492 µg/mL | improved dissolution behaviour | 651 | 899 | 206 | 292 | water uptake levels (water vapour sorption) ([1]; relative humidity range 0-80% RH): ≤ 0.7 % (w/w) |
| COc1ncc(C2=CCOCC2)c2sc(NC(=O)N3CC[C@@]4(CCCOC4)C3)nc12 [hemi tartaric acid co-crystal form NF2, (S)-7-Oxa-2-aza-spiro[4,5]decane-2-carboxylic acid [7-(3,6-dihydro2H-pyran-4-yl)-4-methoxy-thiazolo[4,5-c]pyridin-2-yl]-amide] |  |  |  |  | approx. 145 μg/mL |  |  |  |  |  |  |
| COc1ncc(C2=CCOCC2)c2sc(NC(=O)N3CC[C@@]4(CCCOC4)C3)nc12 [mono 3-hydroxybenzoic acid co-crystal form NF1] [(S)-7-Oxa-2-aza-spiro[4,5]decane-2-carboxylic acid [7-(3,6-dihydro2H-pyran-4-yl)-4-methoxy-thiazolo[4,5-c]pyridin-2-yl]-amide] | Not hygroscopic |  | no tendency to undergo hydrate formation |  |  |  |  |  |  |  |  |
| COc1ncc(C2=CCOCC2)c2sc(NC(=O)N3CC[C@@]4(CCCOC4)C3)nc12 [mono fumaric acid co-crystal form A1, (S)-7-Oxa-2-aza-spiro[4,5]decane-2-carboxylic acid [7-(3,6-dihydro2H-pyran-4-yl)-4-methoxy-thiazolo[4,5-c]pyridin-2-yl]-amide] | Slightly hygroscopic | < 3 % (w/w) | no tendency to undergo hydrate formation | 278 | 360 µg/mL | improved dissolution behaviour | 375 | 462 | 331 | 385 |  |
